Laboratory results reported in paper PMC3713097 (Chemical research in toxicology, 2013).
Like-named read-outs stand apart in the source and are kept apart here.

How the values were obtained:
[1] = molecular target: T1, P450 1B1 (Homo sapiens, UniProt Q16678, L432V); assay: Spectral binding titration with purified P450 1B1
T1 sequence (Q16678 1-543 L432V): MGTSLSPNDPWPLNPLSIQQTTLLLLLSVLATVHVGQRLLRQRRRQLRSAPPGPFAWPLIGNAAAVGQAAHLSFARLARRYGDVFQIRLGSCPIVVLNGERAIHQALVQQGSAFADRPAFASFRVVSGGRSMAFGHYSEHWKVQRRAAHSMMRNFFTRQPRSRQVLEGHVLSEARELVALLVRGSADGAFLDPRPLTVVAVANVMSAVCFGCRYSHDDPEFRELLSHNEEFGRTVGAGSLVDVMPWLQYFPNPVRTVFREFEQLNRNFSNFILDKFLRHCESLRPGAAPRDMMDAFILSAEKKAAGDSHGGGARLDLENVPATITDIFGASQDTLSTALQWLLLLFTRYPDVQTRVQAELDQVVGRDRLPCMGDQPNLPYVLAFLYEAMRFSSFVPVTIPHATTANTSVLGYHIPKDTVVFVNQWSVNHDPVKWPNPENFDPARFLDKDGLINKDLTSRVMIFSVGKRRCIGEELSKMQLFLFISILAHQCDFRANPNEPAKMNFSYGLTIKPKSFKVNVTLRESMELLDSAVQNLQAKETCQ

[2] = molecular target: T1, P450 1B1; conditions: pH 7.4
[3] = molecular target: T2, P450 2A6 (Homo sapiens, UniProt P11509); assay: Spectral binding titration with purified P450 2A6
T2 sequence (P11509 1-494): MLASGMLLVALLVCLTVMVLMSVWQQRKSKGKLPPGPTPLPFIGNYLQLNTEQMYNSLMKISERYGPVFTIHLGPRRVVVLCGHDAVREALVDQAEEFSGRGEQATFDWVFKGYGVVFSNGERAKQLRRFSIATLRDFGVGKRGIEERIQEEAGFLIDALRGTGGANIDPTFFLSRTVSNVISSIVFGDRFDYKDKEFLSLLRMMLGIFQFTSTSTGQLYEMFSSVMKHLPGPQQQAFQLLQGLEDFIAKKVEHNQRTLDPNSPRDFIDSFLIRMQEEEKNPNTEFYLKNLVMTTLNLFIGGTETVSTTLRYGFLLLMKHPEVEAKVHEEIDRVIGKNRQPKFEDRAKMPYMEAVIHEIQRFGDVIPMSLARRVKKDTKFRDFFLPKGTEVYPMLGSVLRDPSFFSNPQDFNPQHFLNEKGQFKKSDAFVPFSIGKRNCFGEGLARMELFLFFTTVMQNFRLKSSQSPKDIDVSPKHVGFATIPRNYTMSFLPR

[4] = molecular target: T3, human P450 2A13 (Homo sapiens, UniProt Q16696); conditions: pH 7.4
T3 sequence (Q16696 31-494 limits assumed): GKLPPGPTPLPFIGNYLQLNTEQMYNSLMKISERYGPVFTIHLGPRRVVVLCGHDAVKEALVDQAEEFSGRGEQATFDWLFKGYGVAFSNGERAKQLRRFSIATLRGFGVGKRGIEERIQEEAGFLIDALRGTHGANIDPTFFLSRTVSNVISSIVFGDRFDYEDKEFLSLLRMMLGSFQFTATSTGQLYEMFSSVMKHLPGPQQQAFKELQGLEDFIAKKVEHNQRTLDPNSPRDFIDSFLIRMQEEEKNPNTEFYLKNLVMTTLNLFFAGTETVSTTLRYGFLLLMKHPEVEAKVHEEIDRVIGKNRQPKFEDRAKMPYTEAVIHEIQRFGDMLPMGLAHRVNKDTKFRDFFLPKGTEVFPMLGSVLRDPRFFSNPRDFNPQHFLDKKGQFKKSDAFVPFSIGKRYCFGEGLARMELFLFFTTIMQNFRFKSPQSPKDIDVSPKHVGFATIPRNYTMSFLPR

[5] = molecular target: T2, P450 2A6; conditions: pH 7.4
[6] = molecular target: T4, P450 2A13 (Homo sapiens, UniProt Q16696); assay: Spectral binding titration with purified P450 2A13
T4 sequence (Q16696 with tags, fused parts or gaps limits assumed): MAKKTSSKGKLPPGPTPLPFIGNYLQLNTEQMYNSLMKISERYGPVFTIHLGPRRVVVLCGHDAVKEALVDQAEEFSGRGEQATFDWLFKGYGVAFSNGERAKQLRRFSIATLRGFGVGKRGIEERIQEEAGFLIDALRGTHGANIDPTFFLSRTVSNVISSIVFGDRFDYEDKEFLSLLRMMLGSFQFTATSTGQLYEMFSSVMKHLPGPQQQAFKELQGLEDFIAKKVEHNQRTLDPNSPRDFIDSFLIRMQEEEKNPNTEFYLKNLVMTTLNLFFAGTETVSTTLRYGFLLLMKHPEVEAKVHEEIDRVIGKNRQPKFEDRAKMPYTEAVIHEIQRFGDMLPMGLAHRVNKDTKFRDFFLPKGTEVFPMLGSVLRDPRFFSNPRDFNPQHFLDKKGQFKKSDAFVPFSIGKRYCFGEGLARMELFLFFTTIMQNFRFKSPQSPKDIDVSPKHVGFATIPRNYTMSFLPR

[7] = molecular target: T3, human P450 2A13; conditions: 10 nM P450, 2.5 µM procarcinogen, means ± range of duplicate experiments
[8] = molecular target: T1, P450 1B1; conditions: 10 nM P450, 2.5 µM procarcinogen, means ± range of duplicate experiments

Compound	Kd [1] [µM]	activation of procarcinogens umu gene expression ([2]; 2.5 µM) [units/min/nmol P450]	activation of procarcinogens umu gene expression ([4]; 2.5 µM) [units/min/nmol P450]	activation of procarcinogens umu gene expression ([5]; 2.5 µM) [units/min/nmol P450]	Kd [6] [µM]	activation of procarcinogens umu gene expression [2] [units/min/nmol P450]	activation of procarcinogens umu gene expression [4] [units/min/nmol P450]	activation of procarcinogens umu gene expression [5] [units/min/nmol P450]	other results
C1=Cc2cccc3cccc1c23 [acenaphthylene]	> 20	<10	<10	<10	0.61 ± 0.19	–	–	–	Kd [3]: 4.4 ± 0.52 µM; spectral interaction with P450 2A6 (Type I binding spectra) [3]: interacted; ΔAmax [3]: 0.076 ± 0.52; ΔAmax/ Ks [3]: 0.017; ΔAmax [6]: 0.050 ± 0.004; ΔAmax/ Ks [6]: 0.082
Cc1c(N)nc(C)c2c1[nH]c1ccccc12 [Trp-P-1, 3-amino-1,4-dimethyl-5H-pyrido[4,3-b]indole]	> 20	–	–	–	–	910 ± 90	40 ± 9	61 ± 11	–
Cc1c2ccccc2c(C)c2c1ccc1ccccc12 [7,12-DMBA, 7,12-dimethylbenz[a]anthracene]	8.8 ± 1.3	–	–	–	> 20	190 ± 21	<10	<10	ΔAmax [1]: 0.039 ± 0.002; ΔAmax/ Ks [1]: 0.0044
Cc1c2ccccc2c(C)c2c3c(ccc12)C(O)C(O)C=C3 (stereo not drawn) [7,12-DMBA-3,4-diol, 3,4-dihydroxy-3,4-dihydro-7,12-dimethylbenz[a]anthracene]	–	2700 ± 110	280 ± 33	55 ± 13	–	–	–	–	Kd ([1]; human, pH 7.4): > 20 µM; Kd ([6]; human, pH 7.4): > 20 µM
OC1C=Cc2c(cc3ccc4cccc5ccc2c3c45)C1O (racemic) [( ± )B[a]P-7,8-diol, 7,8-dihydroxy-7,8-dihydrobenzo[a]pyrene]	6.8 ± 1.2	–	–	–	> 20	–	–	45 ± 11	ΔAmax/ Ks ([1]; P450 1B1, Reverse Type I spectra): 0.0035; ΔAmax ([1]; P450 1B1, Reverse Type I spectra, ± SE): 0.024 ± 0.002; activation of procarcinogens umu gene expression [7]: 136 ± 22 units/min/nmol P450; activation of procarcinogens umu gene expression [8]: 2600 ± 110 units/min/nmol P450
OC1C=Cc2c(ccc3cc4ccccc4cc23)C1O (stereo not drawn) [B[a]A-trans-3,4-diol, 3,4-dihydroxy-3,4-dihydrobenz[a]anthracene]	–	<10	<10	<10	–	–	–	–	Kd ([1]; human, pH 7.4): > 20 µM
c1ccc2c(c1)-c1cccc3cccc-2c13 [fluoranthene]	1.6 ± 0.32	–	–	–	2.4 ± 1.5	<10	<10	<10	ΔAmax [1]: 0.066 ± 0.003; ΔAmax/ Ks [1]: 0.042; Kd [3]: > 20 µM; ΔAmax [6]: 0.044 ± 0.011; ΔAmax/ Ks [6]: 0.018
Cc1cnc2ccc3c(nc(N)n3C)c2n1 [MeIQx, 2-amino-3,8-dimethylimiidazo[4,5-f]quinoxaline]	–	–	–	–	–	87 ± 11	110 ± 15	45 ± 15	–
